Measurements: article PMC6644236, “Cytotoxicity of Crude Extract and Isolated Constituents of the Dichrostachys cinerea Bark towards Multifactorial Drug-Resistant Cancer Cells” (Evidence-based Complementary and Alternative Medicine : eCAM, 2019)
Read-outs that look alike come from different tables or passages of the source.

Key:
HCT116 p53-/- cells = assay: Resazurin reduction cytotoxicity assay; format: cell-based; conditions: for IC50: Homo sapiens, HCT-116, HCT116(p53-/-), 72 h incubation; for Degree of resistance: IC50 in HCT116 (p53-/-) divided by IC50 in HCT116 (p53+/+)
Description: (§2) Drug-sensitive and drug-resistant cancer cell lines of previously reported origin were used in this study. These included drug-sensitive CCRF-CEM leukemia cells and its multidrug-resistant P-glycoprotein-overexpressing subline CEM/ADR5000 cells [14–16], MDA-MB-231-pcDNA breast cancer cells and their resistant subline MDA-MB-231-BCRP clone 23 cells [17], HCT116 p53^+/+colon cancer cells and their knockout clone HCT116 p53^−/− cells, and U87.MG glioblastoma cells and their resistant subline U87.MGΔEGFR cells [18, 19]. Normal AML12 hepatocytes were used and compared with HepG2 hepatocarcinoma cells [18, 19].
(§3) The Infinite M2000 Pro™ plate reader (Tecan, Crailsheim, Germany) with excitation wavelength of 544 nm and an emission wavelength of 590 nm was used to read the fluorescence after 72 h incubation. IC50 values earlier defined [13] were calculated from a calibration curve by linear regression using Microsoft Excel [24]. The degree of resistance (D.R.) was determined as the IC50 value of the resistant cell line versus that of its sensitive congeners; meanwhile, the selectivity index (S.I.) was the IC50 value in normal AML12 hepatocytes versus that in HepG2 hepatocarcinoma.

caspase 9 = assay: Caspase-Glo 9 assay; format: cell-based; conditions: CCRF-CEM, 6 h, optimal effects at 8.8 μM
Protocol: (§1) After 6 h treatment of CCRF-CEM cells with DCB and triterpenoid 1 for 6 h, caspases activities were evaluated with Caspase-Glo 3/7, 8, and 9 assay kits (Promega, Mannheim, Germany) similarly as previously reported.

HEK293 cells = system: HEK293 cells; design: method as in PMID 29867487, PMID 11734332; conditions: lowest of the reported range, ref [34], [36]; cited from earlier work
[1] = system: CEM/ADR5000 leukemia cells; design: method as in PMID 29867487; conditions: CEM/ADR5000 compared to CCRF-CEM; ref [34]; cited from earlier work
[2] = system: HepG2 hepatocarcinoma cells; assay: Resazurin reduction cytotoxicity assay; format: cell-based; conditions: Homo sapiens; HepG2, 72 h incubation
Protocol: as §3

[3] = system: normal PBL peripheral blood lymphoblast; design: method as in PMID 11734332; conditions: ref [36]; cited from earlier work
CCRF-CEM cells [4] = assay: ROS production, H2DCFH-DA; format: cell-based; conditions: 24 h, 2 × IC50 (11.38 μg/mL crude extract; 17.60 μM compound 1)
Protocol: The measurement of ROS production using 2′,7′-dichlorodihydrofluorescein diacetate (H2DCFH-DA) (Sigma-Aldrich) was done in CCRF-CEM cells were treated with DCB, compound 1, a solvent control (DMSO), or a positive control, hydrogen peroxide (H2O2) for 24 h, in similar experimental conditions as documented earlier.

CCRF-CEM cells [5] = assay: Annexin V/PI staining, apoptosis by flow cytometry; conditions: 24 h, 2 × IC50
Protocol: The experimental conditions were similar to those earlier reported (24 h incubation; humidified 5% CO2 atmosphere; 37°C) [13]. The BD Accuri C6 Flow Cytometer was then used to analyze apoptosis using fluorescein isothiocyanate (FITC)-conjugated annexin V/PI assay kit (eBioscience™ Annexin V; Invitrogen, San Diego, USA) similarly as reported earlier [13, 22, 23]; early apoptosis for cells stained with only annexin V; late apoptosis or in a necrotic stage for cells stained with both annexin V and propidium iodide [13, 25, 26].

CCRF-CEM cells [6] = assay: Mitochondrial membrane potential (MMP), JC-1 staining; format: cell-based; conditions: 24 h
Protocol: The mitochondrial membrane potential (MMP) of CCRF-CEM cells was analyzed after 24 h treatment with DCB, compound 1, or valinomycin (mitochondrial gradient dissipation substance or positive control). The 5,5′,6,6′-tetrachloro-1,1′,3,3′-tetraethylbenzimidazolyl carbocyanine iodide (JC-1; Biomol, Hamburg, Germany) staining was used to measure the MMP similarly as previously reported.

CCRF-CEM cells [7] = system: CCRF-CEM cells; design: method as in PMID 29867487, PMID 11734332; conditions: highest of the reported range, ref [34], [36]; cited from earlier work
[8] = system: MDA-MB-231-pcDNA breast cancer cells; assay: Resazurin reduction cytotoxicity assay; format: cell-based; conditions: 72 h incubation
[9] = system: HCT116 p53+/+ colon cancer cells; assay: Resazurin reduction cytotoxicity assay; format: cell-based
CCRF-CEM leukemia cells = assay: Resazurin reduction cytotoxicity assay; format: cell-based; conditions: 72 h incubation
Protocol: as §3

caspases 3/7 = assay: Caspase-Glo 3/7 assay; format: cell-based; conditions: CCRF-CEM, 6 h, optimal effects at 8.8 μM
Protocol: as §1

[10] = system: 9 tested cancer cell lines; assay: Resazurin reduction cytotoxicity assay, whole panel; format: cell-based; conditions: for IC50: all tested cancer cell lines, 72 h incubation, read-out: IC50 values over the tested cancer cell lines
Description: These included drug-sensitive CCRF-CEM leukemia cells and its multidrug-resistant P-glycoprotein-overexpressing subline CEM/ADR5000 cells [14–16], MDA-MB-231-pcDNA breast cancer cells and their resistant subline MDA-MB-231-BCRP clone 23 cells [17], HCT116 p53^+/+colon cancer cells and their knockout clone HCT116 p53^−/− cells, and U87.MG glioblastoma cells and their resistant subline U87.MGΔEGFR cells [18, 19]. Normal AML12 hepatocytes were used and compared with HepG2 hepatocarcinoma cells [18, 19].
as §3

Normal AML12 hepatocytes = assay: Resazurin reduction cytotoxicity assay; format: cell-based; conditions: for Selectivity index: IC50 in normal AML12 hepatocytes divided by IC50 in HepG2; for IC50: Mus musculus, normal AML12 hepatocytes, 72 h incubation
Description: as §2, §3

[11] = system: CEM/ADR5000 cells (multidrug-resistant P-glycoprotein-overexpressing subline); assay: Resazurin reduction cytotoxicity assay; format: cell-based; conditions: for IC50: CEM/ADR5000, 72 h incubation; for Degree of resistance: IC50 in CEM/ADR5000 divided by IC50 in CCRF-CEM
Description: as §2, §3

[12] = system: MDA-MB-231-BCRP clone 23 cells; assay: Resazurin reduction cytotoxicity assay; conditions: for Degree of resistance: IC50 in MDA-MB-231-BCRP divided by IC50 in MDA-MB-231-pcDNA; for IC50: MDA-MB-231/BCRP, 72 h
Description: as §2, §3

U87.MGΔEGFR cells = assay: Resazurin reduction cytotoxicity assay; format: cell-based; conditions: for Degree of resistance: IC50 in U87MG.ΔEGFR divided by IC50 in U87MG; for IC50: U87MG.ΔEGFR, 72 h incubation
Description: as §2, §3

CCRF-CEM cells [13] = assay: Cell cycle analysis by flow cytometry (PI); format: cell-based; conditions: 24 h
Protocol: Aliquots of 1×10^6 CCRF-CEM cells were treated with the studied samples (DCB and compound 1), the reference drug (doxorubicin), or the solvent control (DMSO) at various concentrations. […] The BD Accuri C6 Flow Cytometer (BD Biosciences, Heidelberg, Germany) was used to measure the propidium iodide (PI) fluorescence of individual nuclei. Assays were repeated at least three times and in triplicate.

[14] = system: U87.MG glioblastoma cells; assay: Resazurin reduction cytotoxicity assay; format: cell-based; conditions: Homo sapiens, U-87 MG; U87MG, 72 h incubation
caspase 8 = assay: Caspase-Glo 8 assay; format: cell-based; conditions: CCRF-CEM, 6 h, optimal effects at 8.8 μM
Protocol: as §1

[15] = Homo sapiens, HCT-116, 72 h, 72 h incubation

C=C(C)[C@@H]1CC[C@]2(C(=O)O)CC[C@]3(C)[C@H](CC[C@@H]4[C@@]5(C)CC[C@H](O)C(C)(C)[C@@H]5CC[C@]43C)[C@@H]12 [Compound 1, betulinic acid]
IC50 (HCT116 p53-/- cells): 17.1 ± 0.7 µM | Degree of resistance (HCT116 p53-/- cells): 0.54 | Increase in the activity of caspase 9 (caspase 9): 2.37 fold | IC50 (HEK293 cells): 15.1 µM | Sensitivity of resistant cells compared to sensitive congener [1]: hypersensitivity | IC50 [2]: 44.2 ± 3.15 µM | Cytotoxicity towards normal cells [3]: low cytotoxicity | ROS production, percentage (CCRF-CEM cells [4]): 53.30% | Q9-LR early apoptotic cells annexin (+)/PI (-) (CCRF-CEM cells [5]): 51.0% | Q9-UL annexin V (-)/PI (+) cells (necrosis) (CCRF-CEM cells [5]): 5.1% | Q1 intact cells (CCRF-CEM cells [6]; 1/2 × IC50): 83.0% | Q2 loss of MMP (CCRF-CEM cells [6]; 1/2 × IC50): 1.28% | Q3 ruptured cell membrane (CCRF-CEM cells [6]; 1/2 × IC50): 0.291% | Q4 ruptured cell membrane (CCRF-CEM cells [6]; 1/2 × IC50): 15.4% | Q1 intact cells (CCRF-CEM cells [6]; 1/4 × IC50): 88.0% | Q2 loss of MMP (CCRF-CEM cells [6]; 1/4 × IC50): 1.43% | Q3 ruptured cell membrane (CCRF-CEM cells [6]; 1/4 × IC50): 0.057% | Q4 ruptured cell membrane (CCRF-CEM cells [6]; 1/4 × IC50): 10.6% | Q1 intact cells (CCRF-CEM cells [6]; 2 × IC50): 42.5% | Q2 loss of MMP (CCRF-CEM cells [6]; 2 × IC50): 57.5% | Q3 ruptured cell membrane (CCRF-CEM cells [6]; 2 × IC50): 0.00% | Q4 ruptured cell membrane (CCRF-CEM cells [6]; 2 × IC50): 0.00% | Q1 intact cells (CCRF-CEM cells [6]; IC50): 51.8% | Q2 loss of MMP (CCRF-CEM cells [6]; IC50): 48.2% | Q3 ruptured cell membrane (CCRF-CEM cells [6]; IC50): 0.00% | Q4 ruptured cell membrane (CCRF-CEM cells [6]; IC50): 0.00% | IC50 (CCRF-CEM cells [7]): 29.4 µM | IC50 [8]: 38.8 ± 0.94 µM | IC50 [9, 15]: 31.5 ± 0.49 µM | IC50 (CCRF-CEM leukemia cells): 8.8 ± 0.35 µM | IC50 (CCRF-CEM leukemia cells; Homo sapiens, 72 h): < 10 µM | Increase in the activity of caspases 3/7 (caspases 3/7): 3.19 fold | IC50 ([10]; 72 h): < 50 µM | Degree of resistance (D.R.), all resistant cell lines ([10]; all resistant cell lines compared to their sensitive counterparts): below 1 | Selectivity index (Normal AML12 hepatocytes): > 2.13 | IC50 (Normal AML12 hepatocytes): > 93.9 µM | IC50 [11]: 7.65 ± 1.46 µM | IC50 ([11]; Homo sapiens, ADR5000, 72 h): < 10 µM | Degree of resistance [11]: 0.87 | Degree of resistance [12]: 0.64 | IC50 [12]: 24.9 ± 1.2 µM | Degree of resistance (U87.MGΔEGFR cells): 0.56 | IC50 (U87.MGΔEGFR cells): 13.9 ± 1.06 µM | Cell percentage Sub-G0/G1 (CCRF-CEM cells [13]; 1/4 × IC50): 15.30% | Cell percentage Sub-G0/G1 (CCRF-CEM cells [13]; 2 × IC50): 48.40% | IC50 [14]: 24.9 ± 0.33 µM | Increase in the activity of caspase 8 (caspase 8): 2.91 fold

CCCCCCCCCCCCCCCCCCCCCCCCCC(=O)OCC(O)CO (stereo not shown) [Compound 2, glyceryl-1-hexacosanoate]
IC50 (HCT116 p53-/- cells): > 100 µM | IC50 [2]: > 100 µM | IC50 [8]: > 100 µM | IC50 [9, 15]: > 100 µM | IC50 (CCRF-CEM leukemia cells; Homo sapiens): > 100 µM | IC50 ([10]; 72 h): > 100 µM | IC50 (Normal AML12 hepatocytes): > 100 µM | IC50 ([11]; Homo sapiens): > 100 µM | IC50 [12]: > 100 µM | IC50 (U87.MGΔEGFR cells): > 100 µM | IC50 [14]: > 100 µM

O=c1cc(-c2ccc(O)cc2)oc2cc(O)ccc12 [Compound 3, 7-hydroxy-2-(4-hydroxyphenyl)-4H-chromen-4-one]
IC50 (HCT116 p53-/- cells): 66.3 ± 5.67 µM | Degree of resistance (HCT116 p53-/- cells): < 0.66 | IC50 [2]: 48.6 ± 7.09 µM | IC50 [8]: 75.5 ± 5.16 µM | IC50 ([9]; Homo sapiens, HCT-116, 72 h incubation): > 100 µM | IC50 (CCRF-CEM leukemia cells; Homo sapiens): 31.2 ± 0.98 µM | IC50 [10]: > 10 µM | IC50 (Normal AML12 hepatocytes): > 100 µM | IC50 ([11]; Homo sapiens): 124 ± 20.2 µM | Degree of resistance [11]: 3.98 | Degree of resistance [12]: 1.06 | IC50 [12]: 80 ± 1.61 µM | Degree of resistance (U87.MGΔEGFR cells): 0.88 | IC50 (U87.MGΔEGFR cells): 53.8 ± 6.1 µM | IC50 [14]: 61.3 ± 5.87 µM

O=c1cc(-c2ccc(O)cc2)oc2ccc(O)cc12 [Compound 4, 6-hydroxy-2-(4-hydroxyphenyl)-4H-chromen-4-one]
IC50 (HCT116 p53-/- cells): 48.6 ± 3.82 µM | Degree of resistance (HCT116 p53-/- cells): 1.00 | IC50 [2]: 34 ± 2.95 µM | IC50 [8]: 45.8 ± 4.76 µM | IC50 ([9]; 72 h incubation): 48.9 ± 5.35 µM | IC50 [9, 15]: 88.9 µM | IC50 (CCRF-CEM leukemia cells; Homo sapiens): 18.9 ± 1.54 µM | Selectivity index (Normal AML12 hepatocytes): 1.59 | IC50 (Normal AML12 hepatocytes): 53.9 ± 11.2 µM | IC50 ([11]; Homo sapiens): 38.8 ± 2.13 µM | Degree of resistance [11]: 2.05 | Degree of resistance [12]: 0.88 | IC50 [12]: 40.5 ± 3.9 µM | Degree of resistance (U87.MGΔEGFR cells): 1.02 | IC50 (U87.MGΔEGFR cells): 44.6 ± 2.56 µM | IC50 [14]: 43.9 ± 8.19 µM

COc1cccc2c1C(=O)c1c(O)c3c(c(O)c1C2=O)C[C@@](O)(C(=O)CO)C[C@@H]3O[C@H]1C[C@H](N)[C@H](O)[C@H](C)O1 [Doxorubicin, doxorubicin, reference compound]
IC50 (HCT116 p53-/- cells): 1.78 ± 0.08 µM | Degree of resistance (HCT116 p53-/- cells): 3.73 | IC50 [2]: 4.56 ± 0.48 µM | IC50 [8]: 0.13 ± 0.01 µM | IC50 (CCRF-CEM leukemia cells; Homo sapiens): 0.02 µM | IC50 (Normal AML12 hepatocytes): 52.9 ± 4.09 µM | Degree of resistance [11]: 6,683.00 | Degree of resistance [12]: 6.14 | IC50 [12]: 0.79 ± 0.08 µM | Degree of resistance (U87.MGΔEGFR cells): 3.79 | IC50 (U87.MGΔEGFR cells): 0.98 ± 0.07 µM | Cell cycle arrest (phase) (CCRF-CEM cells [13]): between S and G2/M | IC50 [14]: 0.26 ± 0.03 µM

CC(C)[C@@H]1NC(=O)[C@H](C)OC(=O)[C@@H](C(C)C)NC(=O)[C@@H](C(C)C)OC(=O)[C@H](C(C)C)NC(=O)[C@H](C)OC(=O)[C@@H](C(C)C)NC(=O)[C@@H](C(C)C)OC(=O)[C@H](C(C)C)NC(=O)[C@H](C)OC(=O)[C@@H](C(C)C)NC(=O)[C@@H](C(C)C)OC1=O [Valinomycin, valinomycin, reference compound]
Q1 intact cells (CCRF-CEM cells [6]; 10 μM): 54.1% | Q2 loss of MMP (CCRF-CEM cells [6]; 10 μM): 45.9% | Q3 ruptured cell membrane (CCRF-CEM cells [6]; 10 μM): 0.00% | Q4 ruptured cell membrane (CCRF-CEM cells [6]; 10 μM): 0.00%
